Assay results as given in patent publication US7241937B2, “Methods and materials for improving plant drought tolerance” (Ceres, Inc., priority 2004, dated 2007).

Test system: NCED3 transgenic seeds
Test: GA3 treatment: germination of NCED3 transgenic R2 seeds on growth medium containing GA3
Assay type: in vivo, rice
Procedure: GA3 treatment: R2 seeds were surface-sterilized with 20% bleach and germinated on half-strength MS containing 0.4 mL/L Finale and filter-sterilized GA3 (gibberellin) to final concentrations of 0, 10, 100, 250, 500 or 1,000 μM.
ABA and GA3 (gibberellin) can act antagonistically in seed germination. To determine whether GA3 could release the prolonged dormancy evident in the NCED3 transgenic seeds, GA3 was added to the growth medium on which the seeds were placed for germination. […] Thus, addition of exogenous of GA3 can, at least in part, overcome the off-type of prolonged dormancy.

C=C1C[C@]23C[C@@]1(O)CC[C@H]2[C@@]12C=C[C@H](O)[C@@](C)(C(=O)O1)[C@H]2[C@@H]3C(=O)O [GA3]
seed germination (release of prolonged dormancy) (GA3 at a concentration as low as 10 μM in the growth medium): accelerated germination | seedling elongation (higher concentrations of GA3): more elongated | seed germination (higher concentrations of GA3 (100-1,000 μM) compared with 10 μM): did not significantly improve seed germination
